Reference: US20240206465A1, “ACTIVE POLYMERIC FILMS AND POLYMERIC COMPOSITIONS” (Yissum Research Development Company of the Hebrew …, priority 2021, published 2024)
Square brackets hold non-standard residues; d marks the D form. Ends that are not written are not given here. Phe(4-F) = N[C@@H](Cc1ccc(F)cc1)C(=O)O; Dopa = N[C@@H](Cc1ccc(O)c(O)c1)C(=O)O

Assays:
[1] = Thermogravimetric analysis (thermal stability); type: physicochemical; conditions: at 160° C.; contained the absorbed water; FIG. 4A
Procedure: Thermogravimetric analysis (TGA). TGA measurements were performed using the TGA Q5000 system (TA instruments, USA) at a heating rate of 10° C./min under nitrogen atmosphere, starting from room temperature to 800° C. The results were analyzed using Universal Analysis 200 version 4.5 A build 4.5.0.5 software.

T4 phage = conditions: peptide assemblies deposited on the glass surface; cited from earlier work
canine coronavirus = conditions: peptide assemblies deposited on the glass surface; cited from earlier work

Substance: [Dopa]-[Phe(4-F)]-[Phe(4-F)]-OMe
- weight loss of the peptide (TGA) [1]: < 3 wt %
- antiviral activity against T4 phage (T4 phage): acted against
- antiviral activity against canine coronavirus (canine coronavirus): acted against
